Literature values, collected in US6521254B2, “Single-dose antihistamine/decongestant formulations for treating rhinitis” (J-Med Pharmaceuticals, Inc., priority 1998, dated 2003).

What was measured:
histamine receptors = conditions: for duration of therapeutic benefit suitable for dosing interval (FDA standard, labeling): cetirizine 5 mg and 10 mg, loratidine 10 mg, fexofenadine 180 mg
[1] = compared with other non-sedating and with sedating antihistamines
[2] = 30 mg pseudoephedrine, immediate release, syrup

Compound	duration of therapeutic benefit suitable for dosing interval (FDA standard, labeling) (histamine receptors)	duration of antihistaminic effect (histamine receptors; oral, human)	duration of therapeutic antihistaminic benefit (histamine receptors; 5 mg cetirizine, immediate release)	time after dosing at which antihistaminic effect is exerted (onset) (histamine receptors; oral, human, given alone / immediate release)	sedation [1]	duration of action [2]
CCOC(=O)N1CCC(=C2c3ccc(Cl)cc3CCc3cccnc32)CC1 [loratidine]	24 h	> 24 h				
O=C(O)COCCN1CCN(C(c2ccccc2)c2ccc(Cl)cc2)CC1 (centres unmarked) [cetirizine]	24 h	24 h	24 h	one	slightly more sedation than other non-sedating antihistamines	
CN[C@@H](C)[C@@H](O)c1ccccc1 [pseudoephedrine]						4 to 6 h
